Test results reported in US8282688B2, “Laccase mediators and methods of use” (Danisco US Inc., priority 2006, dated 2012).
“And” between values parts separate entries of the source, which are not always exact repeats. Identical values can stand only once.

Key:
[1] = test system: Cerrena unicolor Laccase (recombinant laccase D); test: Laccase bleaching of stonewashed denim legs, laccase dose response, Unimac (Example 11); type: biochemical; details: pH 6, 60° C., 30 minutes
Experimental: Denim, 12 legs weighing approximately 3 kg, was desized in a Unimac UF 50 washing machine under the following conditions: • Desizing for 15 minutes at 10:1 liquor ratio 50° C. with 0.5 g/l (15 g) of Optisize 160 amylase (Genencor) and 0.5 g/l (15 g) of a non-ionic surfactant (e.g. Rucogen BFA, (Rudolf Chemie) or Ultravon GPN, (Huntsman)) • 2 cold rinses for 5 minutes at 30:1 liquor ratio.
Following desizing the denim was stonewashed in a Unimac UF 50 washing machine under the following conditions: • Cold rinse for 5 minutes at 10:1 liquor ratio • Stonewashing for 60 minutes at 10:1 liquor ratio 55° C. with 1 kg of pumice stone, citrate buffer (30 g tri-sodium citrate dihydrate and 30 g citric acid monohydrate) and 35 g IndiAge 2XL cellulase (Genencor). • 2 cold rinses for 5 minutes at 30:1 liquor ratio.
Denim legs were evaluated with a Minolta Chromameter CR 310 in the CIE Lab color space with a D 65 light source. Measurements were done only after laccase treatment. For each denim leg 8 measurements are taken and the result of the 12 legs (96 measurements) was averaged.
Laccase bleaching of stonewashed denim—Denim, 12 legs weighing approximately 3 kg, was desized and stonewashed as described in Example 8. After stonewashing, a laccase treatment was done according to the following process: 30 minutes at 10:1 liquor ratio and pH 6 (21 g monosodium phosphate and 5 g adipic acid) and 60° C. with laccase and mediator. After laccase treatment the denim use rinsed twice in cold water for 5 minutes at 30:1 liquor ratio.

[2] = test system: recombinant laccase D from C. unicolor; test: Bleaching of denim swatches with recombinant C. unicolor laccase D (Example 5); type: biochemical; parameters: key to ΔE (total color difference) Denim swatch Backside / ΔE (total color difference) Denim swatch Frontside: CIE L*a*b* differences, initial minus final; ΔE=(ΔL²+Δa²+Δb²)^1/2
Experimental: Denim legs (made out of sulfur bottom/indigo dyed denim fabric from Cone Mill, style number 1662P) were pretreated with IndiAge® 2XL at a dose of 1 gram per liter in a 50 lb lab scale tumbling washer. The liquor ratio was 6 to 1 (5 kg substrate in 30 liters of water) and the treatment was performed at 55° C. at pH 4.5 for 1 hour. A warm rinse followed the cellulase treatment, after which the fabric was dried in a tumble dryer. A punch press was used to cut ⅝ inch denim disks from IndiAge® 2XL pretreated denim legs. Each denim disk is pre read with a Chroma Meter CR-200 by Minolta in order to determine the CIE L*a*b* values of both the front and backside of the fabric disk.
One denim disk is placed in each well of two duplicate 12 well micro-titer plates. Each well received C. unicolor laccase (20 uL of 1/20 dilution, approx. 20 ppm), mediator (200, 100, 50 or 20 uL of a 20 mM stock solution in methanol) and 50 mM potassium phosphate buffer, pH 6 for a total volume of 2 mL/well. The mediators were methyl syringate (MS), 4-cyano-2,6-dimethoxyphenol (SN) and 3,4,5-trimethoxyphenol (TMP). The plates were sealed and incubated at 50° C. for 2 hours at 150 rpm in a standard incubator. Following this period, the swatches were removed from the plates and carefully placed on a filter paper in a Buchner funnel and washed with copious amounts of water, followed by drying of the residual water under high vacuum overnight. The swatches were then re-read with the chromometer in order to determine the CIE L*a*b* values of both the front and backside of the disk following bleaching. The total color difference (ΔE) is calculated from the difference between the initial and final CIE L*a*b* values according to the formula ΔE=(ΔL^2+Δa^2+Δb^2)^1/2 The total color differences (ΔE) as a function of mediator concentration are plotted in FIGS. 5 and 6.
A denim swatch bleaching assay was performed as described in Example 16, in this instance, using a recombinant form of the laccase D protein derived from C. unicolor.
Two duplicate 12-well plates were loaded with denim disks. The laccase D stock solution (5.5 ABTS units per mL) was dosed at either 25 or 50 uL per well. The mediators used were methyl syringate (MS), 4-cyano-2,6-dimethoxyphenol (SN) and 4-carboxamido-2,6-dimethoxyphenol (SA) and were used at either 0.5 or 1 mM concentration. The results are depicted in FIGS. 7 and 8.

[3] = mediator 0.5 mM, laccase D stock (5.5 U/mL) 25 uL
[4] = mediator 0.5 mM, laccase D stock (5.5 U/mL) 50 uL
[5] = mediator 1 mM, laccase D stock (5.5 U/mL) 25 uL
[6] = mediator 1 mM, laccase D stock (5.5 U/mL) 50 uL

Row | SMILES | ΔE (total color difference) Denim swatch Backside [2, 3] | ΔE (total color difference) Denim swatch Frontside [2, 3] | ΔL Denim swatch Backside [2, 3] | ΔL Denim swatch Frontside [2, 3] | Δb Denim swatch Backside [2, 3] | Δb Denim swatch Frontside [2, 3] | ΔE (total color difference) Denim swatch Backside [2, 4] | ΔE (total color difference) Denim swatch Frontside [2, 4] | ΔL Denim swatch Backside [2, 4] | ΔL Denim swatch Frontside [2, 4] | Δb Denim swatch Backside [2, 4] | Δb Denim swatch Frontside [2, 4] | ΔE (total color difference) Denim swatch Backside [2, 5] | ΔE (total color difference) Denim swatch Frontside [2, 5] | ΔL Denim swatch Backside [2, 5] | ΔL Denim swatch Frontside [2, 5] | Δb Denim swatch Backside [2, 5] | Δb Denim swatch Frontside [2, 5] | ΔE (total color difference) Denim swatch Backside [2, 6] | ΔE (total color difference) Denim swatch Frontside [2, 6] | also measured
1 | COc1cc(C(N)=O)cc(OC)c1O [SA, 4-carboxamido-2,6-dimethoxyphenol] | 6.69 and 6.39 | 5.07 and 5.70 | 4.94 and 4.93 | 4.73 and 5.28 | 4.51 and 4.05 | 1.16 and 1.47 | 6.15 and 6.71 | 3.96 and 4.75 | 4.64 and 5.25 | 3.66 and 4.46 | 4.04 and 4.17 | 0.87 and 0.88 | 8.92 and 8.37 | 7.55 and 7.70 | 7.02 and 6.53 | 7.07 and 7.19 | 5.51 and 5.22 | 1.76 and 1.68 | 8.72 and 9.16 | 6.72 and 7.93 | Bleaching level (CIE L) ([1]; Syringamide 0.33 mM, Cerrena unicolor laccase 0.010 g/l): 34.6; Bleaching level (CIE L) ([1]; Syringamide 0.33 mM, Cerrena unicolor laccase 0.05 g/l): 36.2; Bleaching level (CIE L) ([1]; Syringamide 0.33 mM, Cerrena unicolor laccase 0.25 g/l): 36.2; ΔL Denim swatch Backside [2, 6]: 6.52 and 6.82; ΔL Denim swatch Frontside [2, 6]: 6.23 and 7.37; Δa Denim swatch Backside [2, 6]: 0.15 and 0.10; Δb Denim swatch Backside [2, 6]: 5.79 and 6.12; Δb Denim swatch Frontside [2, 6]: 1.73 and 2.11
2 | COc1cc(C#N)cc(OC)c1O [SN, 4-cyano-2,6-dimethoxyphenol] | 11.62 and 11.54 | 9.98 and 10.48 | 9.69 and 9.31 | 9.23 and 9.73 | 6.41 and 6.81 | 3.12 and 3.39 | 10.67 and 10.48 | 8.70 and 9.31 | 8.87 and 8.45 | 8.20 and 8.67 | 5.93 and 6.19 | 2.34 and 2.90 | 13.85 and 13.07 | 13.24 and 13.88 | 11.36 and 10.64 | 12.31 and 12.85 | 7.93 and 7.59 | 4.36 and 4.85 | 14.05 and 14.15 | 14.18 and 14.15 | Bleaching level (CIE L) ([1]; Syringonitrile 0.39 mM, Cerrena unicolor laccase 0.25 g/l): 37.7; Bleaching level (CIE L) ([1]; Syringonitrile 0.39 mM, Cerrena unicolor laccase 0.4 g/l): 39.5; Bleaching level (CIE L) ([1]; Syringonitrile 0.39 mM, Cerrena unicolor laccase 0.53 g/l): 38.8; Δa Denim swatch Backside [2, 4]: 0.26 and 0.33; ΔL Denim swatch Backside [2, 6]: 11.25 and 10.98; ΔL Denim swatch Frontside [2, 6]: 12.98 and 12.85; Δa Denim swatch Backside [2, 6]: 0.29 and 0.48; Δb Denim swatch Backside [2, 6]: 8.41 and 8.91; Δb Denim swatch Frontside [2, 6]: 5.33 and 5.50; effectiveness as mediator for swatch bleaching ([2]; recombinant laccase D, mediator 0.5 or 1 mM): most effective mediator
